Where a name gives a salt, the structure may show the parent alone.
Tests used:
[1] = tested on: Caenorhabditis elegans N2; assay: lowest effective concentration for larval growth inhibition (size below effect threshold); higher = less potent; details: exposure time 48 h
In short: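 Chemical exposure ran for 48 h at 20°C: 50 C. elegans N2 L1 larvae per 96-well in K-medium with killed bacteria, 1% DMSO and 0.5, 1, 5, 10, 50, 100 or 200 µM chemical. Extinction of each worm, read as size on the Biosort, was log-transformed and averaged by well. The lowest effective concentration is the first dose whose plate-adjusted mean size is below a fixed value and remains so at all higher doses; the value is 5.665.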

[2] = tested on: Caenorhabditis elegans N2; assay: mean nematode size ln(EXT) after 48 h, plate-adjusted (DMSO control set to 6) (ln(EXT), control-adjusted); higher = larger nematodes / less growth inhibition; details: exposure time 48 h
In short: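 In K-medium with killed OP50, 1% DMSO and 0.5–200 µM chemical, synchronised N2 L1 larvae of C. elegans (50 per well) grew for 48 h at 20°C. Extinction was read for every worm on the Biosort, with debris removed by a growth model. Natural-log values averaged per well gave mean size, which was corrected per plate by subtracting the vehicle control mean and adding 6.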

Compound	lowest effective concentration [1] [µM]	mean nematode size ln(EXT) (ln) ([2]; 0.5 µM)	mean nematode size ln(EXT) (ln) ([2]; 1 µM)	mean nematode size ln(EXT) (ln) ([2]; 5 µM)	mean nematode size ln(EXT) (ln) ([2]; 10 µM)	mean nematode size ln(EXT) (ln) ([2]; 50 µM)	mean nematode size ln(EXT) (ln) ([2]; 100 µM)	mean nematode size ln(EXT) (ln) ([2]; 200 µM)
CNC(=O)Oc1cccc2ccccc12 [Carbaryl]	> 200	5.78	5.79	5.6	5.71	5.83	5.72	5.67
O=C(O)Cc1ccccc1Nc1c(Cl)cccc1Cl [Diclofenac sodium salt]	> 200	5.93	5.95	5.92	5.99	5.92	5.9	5.83
CN(C)C=O [N,N-Dimethylformamide]	> 200	5.86	5.92	5.88	5.84	6.01	5.79	5.78
O=S(=O)(O)C(F)(F)C(F)(F)C(F)(F)C(F)(F)F [Potassium nonafluoro-1-butanesulfonate]	> 200	5.49	5.58	5.55	5.7	5.7	5.65	5.81
C[C@H](O)CCO [1,3-Butanediol]	> 200	5.92	5.9	5.88	6.01	6	6.02	5.74
Cc1cc(C)c(O)c(C)c1 [2,4,6-Trimethylphenol]	> 200	5.76	5.87	5.85	5.84	5.87	5.86	5.76
CCC(C)c1ccccc1O (stereo unspecified) [2-(Butan-2-yl)phenol]	> 200	5.9	5.85	5.89	5.94	5.86	5.82	5.7
c1cc(-c2ccncc2)ccn1 [4,4'-bipyridine]	> 200	5.97	5.91	5.89	5.94	5.95	6.01	5.85
COP(=O)(NC(C)=O)SC (stereo unspecified) [Acephate]	> 200	5.69	5.74	5.76	5.69	5.85	5.77	5.99
CN1CCCC1=O [N-Methyl-2-pyrrolidone]	> 200	5.94	5.92	5.89	5.81	5.8	5.89	5.84
Cc1cc(Cl)ccc1OCC(=O)O [MCPA]	> 200	5.99	6.05	6.18	6.02	6.09	6.02	5.9
CC1(C)C(C=C(Cl)Cl)C1C(=O)OC(C#N)c1ccc(F)c(Oc2ccccc2)c1 (stereo unspecified) [Cyfluthrin]	> 200	6.09	6.69	6.12	6.22	6.18	6.44	5.7
CCCCN(CCCC)CCCC [Tributylamine]	> 200	5.91	6	5.98	6.1	5.96	5.92	5.8
COCC(=O)N(c1c(C)cccc1C)C(C)C(=O)OC (stereo unspecified) [Metalaxyl]	> 200	6.15	6.19	6.16	6	6.14	6.18	5.98
CC(C)(C)c1ccccc1 [tert-Butylbenzene]	> 200	5.94	6.02	6.07	6.05	6.22	6.12	5.79
O=S1(=O)CCCO1 [1,3-Propane sultone]	> 200	5.83	5.87	5.85	5.78	5.84	5.91	5.76
Nc1ccc(-c2ccc(N)cc2)cc1 [Benzidine]	> 200	6.06	6.02	5.91	5.98	5.81	5.75	5.97
CC(C)C1(C)N=C(c2nc3ccccc3cc2C(=O)O)NC1=O (stereo unspecified) [Imazaquin]	> 200	6.13	6.14	6.13	6.33	6.08	6.06	6.1
CCNc1nc(Cl)nc(NC(C)C)n1 [Atrazine]	> 200	5.54	5.72	5.73	5.07	6.06	6.06	5.94
OCCOc1ccccc1 [Phenoxyethanol]	> 200	5.77	5.98	6.04	6.07	6.15	5.99	5.97
COc1ccc([N+](=O)[O-])cc1N [2-methoxy-5-nitroaniline]	> 200	5.71	5.76	5.68	5.77	5.83	5.75	5.82
CC1(C)C(=O)N(Cl)C(=O)N1Cl [1,3-Dichloro-5,5-dimethylhydantoin]	> 200	5.81	5.79	5.79	5.82	5.83	5.8	5.67
CNC(=O)O/N=C/C(C)(C)SC [Aldicarb]	> 200	5.86	5.88	5.74	5.74	5.55	5.25	5.75
C#CCN1C(=O)COc2cc(F)c(N3C(=O)C4=C(CCCC4)C3=O)cc21 [Flumioxazin]	> 200	5.98	5.91	5.92	5.99	5.98	5.87	6
CCOCN(C(=O)CCl)c1c(C)cccc1CC [Acetochlor]	> 200	6.04	6	6.11	6.25	6.04	6.05	6.15
Clc1ccccc1-c1nnc(-c2ccccc2Cl)nn1 [Clofentezine]	> 200	6.25	6.03	6.11	5.96	5.86	5.98	5.73
CN(C)c1ccccc1 [N,N-Dimethylaniline]	> 200	5.97	6.02	6.03	6.01	6.08	6.02	5.73
